From US5071965A, “Novel TC-99M complexes” (Mallinckrodt Medical, Inc., priority 1989, dated 1991)

Test: Biodistribution of Tc-99m complexes in guinea pigs (heart uptake, heart/blood)
Settings: complex made from the reduced ligand
Procedure: The procedures used for determining biodistribution are as follows.
Guinea Pigs--The guinea pigs are anesthetized and the technetium complex is injected into the jugular vein after a cutdown. The animals are sacrificed after 5 minutes and the organs removed and counted as with the rats.
For guinea pigs, significant heart uptake is determined if the percentage of technetium in the heart is greater than 0.5% and the heart/blood ratio is greater than 1.

Compound	guinea pig biodistributions, compared with the complex of Example 95
CCCOCC(CNCc1ccccc1O)(CNCc1ccccc1O)CNCc1ccccc1O [Example 96, 1,1,1-tris(2-hydroxyphenylmethylaminomethyl)-2-propoxyethane]	identical

Same assay, conditions: jugular vein injection, 5 minutes, Tc-99m complex

Compound	5 Minute Guinea Pig % HT Uptake [%]
COCCCCC(CN=Cc1ccccc1O)(CN=Cc1ccccc1O)CN=Cc1ccccc1O (stereo not drawn)	1.66
CCCOCC(CN=Cc1ccc(OC)cc1O)(CN=Cc1ccc(OC)cc1O)CN=Cc1ccc(OC)cc1O (stereo not drawn)	0.87
COc1c(O)c(C=NCC(C)(CN=Cc2c(O)c(OC)c(OC)c(OC)c2OC)CN=Cc2c(O)c(OC)c(OC)c(OC)c2OC)c(OC)c(OC)c1OC (stereo not drawn) [2,3,4,5-tetramethoxyphenol, 6,6'-[[2-[[[(3,4,5,6-tetramethoxy-2-hydroxyphenyl)methylene]amino]methyl]-2-methyl-1,3-propanediyl]bis(nitrilomethylidyne)]bis-]	1.24
Oc1c(F)cc(F)cc1C=NCC(CN=Cc1cc(F)cc(F)c1O)(CN=Cc1cc(F)cc(F)c1O)COCc1ccccc1 (stereo not drawn) [2,4-difluorophenol, 2,2'-[[2-[[[(3,5-difluoro-2-hydroxyphenyl)methylene]amino]methyl]-2-phenylmethoxymethyl-1,3-propanediyl]bis(nitrilomethylidyne)]bis-]	1.72
CCOc1cccc(C=NCC(C)(CN=Cc2cccc(OCC)c2O)CN=Cc2cccc(OCC)c2O)c1O (stereo not drawn) [2-ethoxyphenol, 6,6'-[[2-[[[(3-ethoxy-2-hydroxyphenyl)methylene]amino]methyl]-2-methyl-1,3-propanediyl]bis(nitrilomethylidyne)]bis-]	0.50
CCc1cccc(C=NCC(C)(CN=Cc2cccc(CC)c2O)CN=Cc2cccc(CC)c2O)c1O (stereo not drawn) [2-ethylphenol, 6,6'-[[2-[[[3-ethyl-2-hydroxyphenyl)methylene]amino]methyl]2-methyl-1,3-propanediyl]bis(nitrilomethylidyne)]bis-]	0.47
COc1cc(COCC(CN=Cc2c(O)cc(OC)c(OC)c2OC)(CN=Cc2c(O)cc(OC)c(OC)c2OC)CN=Cc2c(O)cc(OC)c(OC)c2OC)cc(OC)c1OC (stereo not drawn) [3,4,5-trimethoxyphenol, 2,2'-[[2-[[[(4,5,6-trimethoxy-2-hydroxyphenyl)methylene]amino]methyl]-2-(3,4,5-trimethoxyphenyl)methoxymethyl-1,3-propanediyl]bis(nitrilomethylidyne)]bis-]	0.98
COc1ccc(COCC(CN=Cc2c(O)cc(OC)c(OC)c2OC)(CN=Cc2c(O)cc(OC)c(OC)c2OC)CN=Cc2c(O)cc(OC)c(OC)c2OC)cc1 (stereo not drawn) [3,4,5-trimethoxyphenol, 2,2'-[[2-[[[(4,5,6-trimethoxy-2-hydroxyphenyl)methylene]amino]methyl]-2-(4-methoxyphenyl)methoxymethyl-1,3-propranediyl]bis(nitrilomethylidyne)]bis-]	1.04
COCC(CN=Cc1c(O)cc(OC)c(OC)c1OC)(CN=Cc1c(O)cc(OC)c(OC)c1OC)CN=Cc1c(O)cc(OC)c(OC)c1OC (stereo not drawn) [3,4,5-trimethoxyphenol, 2,2'-[[2-[[[(4,5,6-trimethoxy-2-hydroxyphenyl)methylene]amino]methyl]-2-methoxymethyl-1,3-propanediyl]bis(nitrilomethylidyne)]bis-]	0.86
COc1cc(O)c(C=NCC(C)(CN=Cc2c(O)cc(OC)c(OC)c2OC)CN=Cc2c(O)cc(OC)c(OC)c2OC)c(OC)c1OC (stereo not drawn) [3,4,5-trimethoxyphenol, 2,2'-[[2-[[[(4,5,6-trimethoxy-2-hydroxyphenyl)methylene]amino]methyl]-2-methyl-1,3-propanediyl]bis(nitrilomethylidyne)]bis-]	1.57
COc1cc(O)c(C=NCC(CN=Cc2c(O)cc(OC)c(OC)c2OC)(CN=Cc2c(O)cc(OC)c(OC)c2OC)COCc2ccccc2)c(OC)c1OC (stereo not drawn) [3,4,5-trimethoxyphenol, 2,2'-[[2-[[[(4,5,6-trimethoxy-2-hydroxyphenyl)methylene]amino]methyl]-2-phenylmethoxymethyl-1,3-propanediyl]bis(nitrilomethylidyne)]bis-]	0.60
COc1cc(O)c(C=NCC(C)(CN=Cc2c(O)cc(OC)c(C)c2OC)CN=Cc2c(O)cc(OC)c(C)c2OC)c(OC)c1C (stereo not drawn) [3,5-dimethoxy-4-methyl-phenol, 2,2'-[[2-[[[(4,6-dimethoxy-5-methyl-2-hydroxyphenyl)methylene]amino]methyl]-2-methyl-1,3-propanediyl]bis(nitrilomethylidyne)]bis-]	0.84
CCCOCC(CN=Cc1c(O)cc(OC)cc1OC)(CN=Cc1c(O)cc(OC)cc1OC)CN=Cc1c(O)cc(OC)cc1OC (stereo not drawn) [3,5-dimethoxyphenol, 2,2'-[[2-[[[(4,6-dimethoxy-2-hydroxyphenyl)methylene]amino]methyl]-2-propoxymethyl-1,3-propanediyl]bis(nitrilomethylidyne)]bis-]	1.21
COc1c(C)cc(O)c(C=NCC(C)(CN=Cc2c(O)cc(C)c(OC)c2C)CN=Cc2c(O)cc(C)c(OC)c2C)c1C (stereo not drawn) [3,5-dimethyl-4-methoxyphenol, 2,2'-[[2-[[[(4,6-dimethyl-5-methoxy-2-hydroxyphenyl)methylene]amino]methyl]-2-methyl-1,3-propanediyl]bis(nitrilomethylidyne)]bis-]	1.07
CN(C)c1ccc(C=NCC(C)(CN=Cc2ccc(N(C)C)cc2O)CN=Cc2ccc(N(C)C)cc2O)c(O)c1 (stereo not drawn) [3-Dimethylaminophenol, 6,6'-[[2-[[[(4-dimethylamino-2-hydroxy-phenyl)methylene]amino]methyl]-2-methyl-1,3-propanediyl]bis-(nitrilomethylidyne)]bis-]	0.72
CCOc1ccc(C=NCC(C)(CN=Cc2ccc(OCC)cc2O)CN=Cc2ccc(OCC)cc2O)c(O)c1 (stereo not drawn) [3-Ethoxyphenol, 6,6'-[[2[[[(4-ethoxy-2-hydroxyphenyl)methylene]amino]methyl-2-methyl-1,3-propanediyl]bis(nitrilomethylidyne)]bis-]	0.98
CCCOCC(CN=Cc1ccc(C)cc1O)(CN=Cc1ccc(C)cc1O)CN=Cc1ccc(C)cc1O (stereo not drawn) [3-Methylphenol, 6,6'-[[2-[[[(4-methyl-2-hydroxyphenyl)methylene]amino]methyl]-2-propoxymethyl-1,3-propanediyl]bis(nitrilomethylidyne)]bis-]	1.79
COC(C)(C)Cc1ccc(O)c(C=NCC(C)(CN=Cc2cc(CC(C)(C)OC)ccc2O)CN=Cc2cc(CC(C)(C)OC)ccc2O)c1 (stereo not drawn) [4-(2-methoxy-2-methyl-propyl)phenol, 2,2'-[[2-[[[(5-(2-methoxy-2-methyl-propyl)-2-hydroxyphenyl)methylene]amino]methyl]-2-methyl-1,3-propanediyl]bis(nitrilomethylidyne)]bis-]	0.49
CCCOCC(CN=Cc1cc(OC)ccc1O)(CN=Cc1cc(OC)ccc1O)CN=Cc1cc(OC)ccc1O (stereo not drawn) [4-Methoxyphenyl, 2,2'-[[2-[[[(5-methoxy-2-hydroxyphenyl)methylene]amino]methyl] -2-propoxymethyl-1,3-propanediyl]bis(nitrilomethylidyne)]bis-]	1.52
Oc1ccc(F)cc1C=NCC(CN=Cc1cc(F)ccc1O)(CN=Cc1cc(F)ccc1O)COCc1ccccc1 (stereo not drawn) [4-fluorophenol, 2,2'-[[2-[[[(5-fluoro-2-hydroxyphenyl)methylene]amino]methyl]-2-phenylmethoxymethyl-1,3-propanediyl]bis(nitrilomethylidyne)]bis-]	1.14
